Data from patent US20120149700A1, “2-CYANOPHENYL FUSED HETEROCYCLIC COMPOUNDS, AND COMPOSTIONS AND USES THEREOF” (priority 2007, published 2012).

What was measured:
P2X2/3 = biological target: T1, P2X2/3 (Homo sapiens, UniProt P56373+Q9UBL9); assay: Calcium uptake assay (P2X antagonist assay, inhibition of agonist-induced calcium influx), P2X2/3; assay type: cell-based; conditions: inhibition of agonist-induced calcium influx in cells expressing the receptor
T1 construct: expressed in transfected cells; host or cells: cell line stably expressing P2X2, stably transfected with P2X3 (e.g. HEK293 or 1321N1)
T1 sequence (Q9UBL9 1-471): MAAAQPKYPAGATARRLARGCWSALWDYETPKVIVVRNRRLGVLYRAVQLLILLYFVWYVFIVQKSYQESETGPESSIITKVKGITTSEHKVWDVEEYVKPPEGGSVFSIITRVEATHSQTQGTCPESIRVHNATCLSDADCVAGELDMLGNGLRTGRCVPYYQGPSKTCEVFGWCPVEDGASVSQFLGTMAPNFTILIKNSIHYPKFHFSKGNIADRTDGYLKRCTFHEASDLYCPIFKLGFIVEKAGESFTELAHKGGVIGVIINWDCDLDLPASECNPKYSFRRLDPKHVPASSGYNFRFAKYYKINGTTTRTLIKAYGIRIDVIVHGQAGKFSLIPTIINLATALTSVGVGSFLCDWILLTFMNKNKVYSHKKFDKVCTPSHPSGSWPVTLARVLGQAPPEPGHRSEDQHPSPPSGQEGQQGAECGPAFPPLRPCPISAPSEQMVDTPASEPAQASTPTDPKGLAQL
T1 sequence (P56373 1-397): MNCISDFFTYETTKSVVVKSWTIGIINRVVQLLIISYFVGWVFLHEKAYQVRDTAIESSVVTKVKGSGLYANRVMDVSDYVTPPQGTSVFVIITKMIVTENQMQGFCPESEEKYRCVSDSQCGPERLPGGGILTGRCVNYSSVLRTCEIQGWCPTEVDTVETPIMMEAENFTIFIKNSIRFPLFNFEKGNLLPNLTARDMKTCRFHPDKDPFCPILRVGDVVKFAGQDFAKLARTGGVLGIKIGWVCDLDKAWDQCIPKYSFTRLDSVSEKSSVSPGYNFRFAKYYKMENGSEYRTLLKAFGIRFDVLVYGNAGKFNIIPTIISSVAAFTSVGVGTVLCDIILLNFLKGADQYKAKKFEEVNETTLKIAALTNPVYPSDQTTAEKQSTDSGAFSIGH
Text: (§1) The human P2X2/3 chimera clone is created as described by Neelands et al, and then cloned into an expression vector as above. Receptors are expressed in cells (e.g., HEK293 or 1321N1 (obtained from the ECACC)) via transient transfection using standard lipid mediated transfection, or by creation of stable transfectants for each receptor. For expression of the P2X2/3 heteromeric receptor, the P2X3 expression vector is stably transfected into a cell line already stably expressing P2X2. P2X2/3 heteromer function is isolated using pharmacological methods. Cell lines are maintained in DMEM+5% Glutamax, the appropriate level of selective antibiotic, and 10% heat inactivated FBS.
(§2) Functional activity of compounds at the P2X receptor is determined by measuring their ability to inhibit agonist-induced calcium influx. Compounds are tested for antagonist activity against the P2X2/3 chimera, the P2X3 homomer, or the P2X2/3 heteromer. At the start of each screening day, the agonist EC50 is determined. Compound % inhibition or IC50s are subsequently determined using a pre-determined agonist concentration (EC50-90 depending on cell line) as a stimulus. The agonists used are αβMeATP, ATP, or other ATP analogs. Compounds may be tested at concentrations ranging from 1 pM to 10 μM.
(§3) To test for antagonist activity, cells expressing the appropriate receptor are seeded onto 96 or 384 well plates 18-24 hours prior to assay. […] Plates are incubated at 37° C. and then equilibrated at room temperature. Antagonism of agonist-induced calcium influx is measured using a fluorescent imaging plate reader (e.g. FLIPR^TETRA, Molecular Devices, Sunnyvale, Calif.). The assay comprises two stages: a pre-treatment phase followed by a treatment phase. Compounds may be tested as follows: For the pre-treatment phase, 50 μL of 3× concentration of test compound in HBSS is added to cells containing 100 μL of dye loading media to achieve a final concentration of 1× test compound. For the treatment phase, at a set interval after pre-treatment (1-30 minutes), 50 μl, of 1× test compound plus 4× agonist solution is added, resulting in a final concentration of 1× compound and 1× agonist. […] Responses are measured as (peak fluorescence after agonist addition) minus (baseline fluorescence prior to treatment). Percent inhibition is calculated as follows: […]
(§4) IC50 values are determined by analyzing dose response data in a 4 parameter logistic fit using GraphPad Prizm.

P2X3 = biological target: T2, P2X3 (Homo sapiens, UniProt P56373); assay: Calcium uptake assay (P2X antagonist assay, inhibition of agonist-induced calcium influx), P2X3; assay type: cell-based; conditions: inhibition of agonist-induced calcium influx in cells expressing the receptor
T2 construct: expressed in transfected cells; host or cells: e.g. HEK293 or 1321N1
T2 sequence (P56373 1-397): T1 sequence (P56373 1-397)
Text: as §1, §2, §3, §4

SMILES	IC50 (P2X2/3) [µM]	IC50 (P2X3) [µM]
COc1ccc(CNc2ncnc3c2CN(c2ccc(Br)cc2C#N)CC3)cn1 [Compound 14, 5-Bromo-2-(4-((6-methoxypyridin-3-yl)methylamino)-7,8-dihydropyrido[4,3-d]pyrimidin-6(5H)-yl)benzonitrile]	0.325	0.078
N#Cc1ccccc1N1CCc2ncnc(NCc3ccc(C(F)(F)F)nc3)c2C1 [Compound 10, 2-{4-[(6-Trifluoromethyl-pyridin-3-ylmethyl)-amino]-7,8-dihydro-5H-pyrido[4,3-d]pyrimidin-6-yl}-benzonitrile]	1.81	0.063
COc1ccc([C@@H](CC(=O)O)Nc2ncnc3c2CN(c2ccc(Cl)cc2C#N)CC3)cn1 [Compound 19, (R)-3-[6-(4-Chloro-2-cyano-phenyl)-5,6,7,8-tetrahydro-pyrido[4,3-d]pyrimidin-4-ylamino]-3-(6-methoxy-pyridin-3-yl)-propionic acid]	> 10	1.38
N#Cc1cc(C(F)(F)F)ccc1N1CCc2ncnc(NCc3ccc(C(F)(F)F)nc3)c2C1 [Compound 5, 5-Trifluoromethyl-2-{4-[(6-trifluoromethyl-pyridin-3-ylmethyl)-amino]-7,8-dihydro-5H-pyrido[4,3-d]pyrimidin-6-yl}-benzonitrile]	–	1.84
Cc1ccc(N2CCc3ncnc(NCc4ccc(C(F)(F)F)nc4)c3C2)c(C#N)c1 [Compound 1, 5-Methyl-2-{4-[(6-trifluoromethyl-pyridin-3-ylmethyl)-amino]-7,8-dihydro-5H-pyrido[4,3-d]pyrimidin-6-yl}-benzonitrile]	0.092	0.019
Cc1ccc(N2CCc3ncnc(NCc4ccc5cc[nH]c5c4)c3C2)c(C#N)c1 [Compound 81, 2-(4-((1H-Indol-6-yl)methylamino)-7,8-dihydropyrido[4,3-d]pyrimidin-6(5H)-yl)-5-methylbenzonitrile]	2.16	0.423
N#Cc1cc(Cl)ccc1N1CCc2ncnc(N[C@H](CCO)c3ccc(C(F)(F)F)nc3)c2C1 [Compound 20, 5-Chloro-2-{4-[(R)-3-hydroxy-1-(6-trifluoromethyl-pyridin-3-yl)-propylamino]-7,8-dihydro-5H-pyrido[4,3-d]pyrimidin-6-yl}-benzonitrile]	0.903	0.09
Cc1ccc(N2CCc3ncnc(NCc4ccc(C5CC5)cn4)c3C2)c(C#N)c1 [Compound 30, 2-{4-[(5-Cyclopropyl-pyridin-2-ylmethyl)-amino]-7,8-dihydro-5H-pyrido[4,3-d]pyrimidin-6-yl}-5-methyl-benzonitrile]	0.377	0.236
N#Cc1cc(Cl)ccc1N1CCc2ncnc(NCc3cccc(-n4cnnc4)c3)c2C1 [Compound 51, 5-Chloro-2-[4-(3-[1,2,4]triazol-4-yl-benzylamino)-7,8-dihydro-5H-pyrido[4,3-d]pyrimidin-6-yl]-benzonitrile]	1.02	0.284
Cc1ccc(N2CCc3ncnc(N[C@@H](CCO)c4ccc(C(F)(F)F)nc4)c3C2)c(C#N)c1 [Compound 65, 2-{4-[(S)-3-Hydroxy-1-(6-trifluoromethyl-pyridin-3-yl)-propylamino]-7,8-dihydro-5H-pyrido[4,3-d]pyrimidin-6-yl}-5-methyl-benzonitrile]	5.42	0.806
Cc1ccc(N2CCc3ncnc(NCc4ccc(C)c(C#N)c4)c3C2)c(C#N)c1 [Compound 56]	0.082	0.063
Cc1ccc(N2CCc3ncnc(N[C@H](CCO)c4ccc(C(F)F)nc4)c3C2)c(C#N)c1 [Compound 22, 2-{4-[(R)-1-(6-Difluoromethyl-pyridin-3-yl)-3-hydroxy-propylamino]-7,8-dihydro-5H-pyrido[4,3-d]pyrimidin-6-yl}-5-methyl-benzonitrile]	0.043	0.013
COc1ccc([C@@H](CC(=O)OC(C)(C)C)Nc2ncnc3c2CN(c2ccc(Cl)cc2C#N)CC3)cn1 [Compound 18, (R)-3-[6-(4-Chloro-2-cyano-phenyl)-5,6,7,8-tetrahydro-pyrido[4,3-d]pyrimidin-4-ylamino]-3-(6-methoxy-pyridin-3-yl)-propionic acid tert-butyl ester]	> 10	> 10
N#Cc1cc(Cl)ccc1N1CCc2ncnc(NCc3ccn4ccnc4c3)c2C1 [Compound 44, 5-Chloro-2-{4-[(imidazo[1,2-a]pyridin-7-ylmethyl)-amino]-7,8-dihydro-5H-pyrido[4,3-d]pyrimidin-6-yl}-benzonitrile]	0.753	0.122
Cc1ccc(N2CCc3ncnc(NCc4ccc(C)c(N5CCOCC5)c4)c3C2)c(C#N)c1 [Compound 63, 5-Methyl-2-[4-(4-methyl-3-morpholin-4-yl-benzylamino)-7,8-dihydro-5H-pyrido[4,3-d]pyrimidin-6-yl]-benzonitrile]	1.12	0.096
N#Cc1cc(Cl)ccc1N1CCc2ncnc(N[C@H](CO)c3ccc(C(F)(F)F)nc3)c2C1 [Compound 47, 5-Chloro-2-{4-[(S)-2-hydroxy-1-(6-trifluoromethyl-pyridin-3-yl)-ethylamino]-7,8-dihydro-5H-pyrido[4,3-d]pyrimidin-6-yl}-benzonitrile]	0.671	0.054
Cc1ccc(N2CCc3ncnc(NCc4ccc(Cl)c(-n5cnnc5)c4)c3C2)c(C#N)c1 [Compound 50, 2-[4-(4-Chloro-3-[1,2,4]triazol-4-yl-benzylamino)-7,8-dihydro-5H-pyrido[4,3-d]pyrimidin-6-yl]-5-methyl-benzonitrile]	0.063	0.031
CN(C)c1ccc(CNc2ncnc3c2CN(c2ccc(Cl)cc2C#N)CC3)cn1 [Compound 12, 5-Chloro-2-(4-((6-(dimethylamino)pyridin-3-yl)methylamino)-7,8-dihydropyrido[4,3-d]pyrimidin-6(5H)-yl)benzonitrile]	1.19	0.628
Cc1ccc(N2CCc3ncnc(NCc4cccc(-n5cnnc5)c4)c3C2)c(C#N)c1 [Compound 53, 5-Methyl-2-[4-(3-[1,2,4]triazol-4-yl-benzylamino)-7,8-dihydro-5H-pyrido[4,3-d]pyrimidin-6-yl]-benzonitrile]	0.324	0.065
Cc1ccc(N2CCc3ncnc(NCc4ccc(C)c(-n5cncn5)c4)c3C2)c(C#N)c1 [Compound 40, 5-Methyl-2-{4-(4-methyl-3-[1,2,4]triazol-1-yl-benzylamino)-7,8-dihydro-5H-pyrido[4,3-d]pyrimidin-6-yl}-benzonitrile]	0.092	0.021
N#Cc1cc(Br)ccc1N1CCc2ncnc(NCc3ccc(C(F)(F)F)nc3)c2C1 [Compound 2, 5-Bromo-2-{4-[(6-trifluoromethyl-pyridin-3-ylmethyl)-amino]-7,8-dihydro-5H-pyrido[4,3-d]pyrimidin-6-yl}-benzonitrile]	–	0.08
N#Cc1cc(C2CC2)ccc1N1CCc2ncnc(NCc3ccc(C(F)(F)F)nc3)c2C1 [Compound 3, 5-Cyclopropyl-2-{4-[(6-trifluoromethyl-pyridin-3-ylmethyl)-amino]-7,8-dihydro-5H-pyrido[4,3-d]pyrimidin-6-yl}-benzonitrile]	–	0.87
